≈ marks a conversion by molar mass, not a printed value. Read-outs that look alike come from different tables or passages of the source.
Legend:
in vitro [1] = type: in vitro ADME; conditions: pH 7.4; mouse microsomes; read-out: Mo micrsomal Clint
Description: (§1) 1 μM compound was incubated with 1 mg/mL of microsomes (Pooled HLM/MLM with 20 mg/ml protein cone.) at 37° C. in 166 μL of buffer (100 mM phosphate buffer, pH-7.4) containing 2 mM NADPH solution. 20 μL of incubation mix was quenched with 4 volumes chilled acetonitrile at different time points i.e. 0, 2, 5, 10, 20 and 30 min in a fresh 96 well plate. The quench plate was centrifuged at 4000 rpm for 15 min. 30 μL of supernatant was diluted to 300 μL with 50% acetonitrile in water and substrate depletion was analyzed using LC-MS/MS.

in vivo [2] = conditions: BALB/c, mouse, po
in vivo [3] = conditions: BALB/c, mouse, po, 50 mg/kg
in vivo [4] = conditions: po, 30 mg/kg
Description: PK of azaindoles compounds was performed in mice (healthy and infected) and rats. Mice were pretreated with 100 mg/kg ABT two hours prior to the compound administration. PK data from healthy mice was used to design the dosing regimen for the efficacy study while, information from infected mice was used for the PK-PD analysis.
All oral administration was performed as suspensions in 0.5% HPMC, and 0.1% Tween 80. […] All blood samples were collected via sapheneous vein into Microvette CB300® (Starstedt, Germany) tubes coated with Lithium-Heparin, and plasma was prepared from the collected blood by centrifugation.
One mg/mL stock solution of each compound was prepared in Dimethylsulfoxide (DMSO) and diluted two-fold with acetonitrile. A sixteen point calibration curve was utilized for each analyte, and the standard curves ranged from 0.001 to 40 μg/mL. Plasma/BAL samples were precipitated by adding chilled acetonitrile (1:10 v/v) containing carbamazepine as internal standard (250 ng/mL). Samples were vortexed, and centrifuged at 4000 rpm for 30 min at 10° C. The resulting supernatant was mixed with mobile phase (50% acetonitrile in water with 0.1% formic acid). […] of sample was injected on to a liquid chromatographic system (Waters-ACQUTY UPLC) coupled to triple quadrupole mass spectrometer (Waters-ACQUTY-TQD; MS/MS). Samples were acquired in positive ion mode and detected by multiple reaction monitoring (MRM). Concentrations of the analyte were determined from a standard curve obtained by plotting known concentrations of the analyte against peak area ratios (analyte/internal standard peak response).
PK analysis of the plasma concentration-time relationships were performed with WinNonlin Phoenix Software (version 6.2; Pharsight, USA). […] The maximum concentration of drug in plasma (Cmax), time to Cmax (Tmax), elimination half-life (t1/2), and AUC from time zero to infinity (AUC0-∞) were estimated. […] Minimum of three sample points in the terminal slope were used to estimate to calculate half-life.

[5] = type: in vitro ADME
Description: as §1, with “20 μL of incubation mix was quenched with 4 volumes chilled acetonitrile at different time points i.e. 0, 2, 5, 10, 20 and 30 min in a fresh 96 well plate.” left out

hERG = hERG (Homo sapiens, UniProt Q12809)
Sequence of hERG (Q12809 whole entry): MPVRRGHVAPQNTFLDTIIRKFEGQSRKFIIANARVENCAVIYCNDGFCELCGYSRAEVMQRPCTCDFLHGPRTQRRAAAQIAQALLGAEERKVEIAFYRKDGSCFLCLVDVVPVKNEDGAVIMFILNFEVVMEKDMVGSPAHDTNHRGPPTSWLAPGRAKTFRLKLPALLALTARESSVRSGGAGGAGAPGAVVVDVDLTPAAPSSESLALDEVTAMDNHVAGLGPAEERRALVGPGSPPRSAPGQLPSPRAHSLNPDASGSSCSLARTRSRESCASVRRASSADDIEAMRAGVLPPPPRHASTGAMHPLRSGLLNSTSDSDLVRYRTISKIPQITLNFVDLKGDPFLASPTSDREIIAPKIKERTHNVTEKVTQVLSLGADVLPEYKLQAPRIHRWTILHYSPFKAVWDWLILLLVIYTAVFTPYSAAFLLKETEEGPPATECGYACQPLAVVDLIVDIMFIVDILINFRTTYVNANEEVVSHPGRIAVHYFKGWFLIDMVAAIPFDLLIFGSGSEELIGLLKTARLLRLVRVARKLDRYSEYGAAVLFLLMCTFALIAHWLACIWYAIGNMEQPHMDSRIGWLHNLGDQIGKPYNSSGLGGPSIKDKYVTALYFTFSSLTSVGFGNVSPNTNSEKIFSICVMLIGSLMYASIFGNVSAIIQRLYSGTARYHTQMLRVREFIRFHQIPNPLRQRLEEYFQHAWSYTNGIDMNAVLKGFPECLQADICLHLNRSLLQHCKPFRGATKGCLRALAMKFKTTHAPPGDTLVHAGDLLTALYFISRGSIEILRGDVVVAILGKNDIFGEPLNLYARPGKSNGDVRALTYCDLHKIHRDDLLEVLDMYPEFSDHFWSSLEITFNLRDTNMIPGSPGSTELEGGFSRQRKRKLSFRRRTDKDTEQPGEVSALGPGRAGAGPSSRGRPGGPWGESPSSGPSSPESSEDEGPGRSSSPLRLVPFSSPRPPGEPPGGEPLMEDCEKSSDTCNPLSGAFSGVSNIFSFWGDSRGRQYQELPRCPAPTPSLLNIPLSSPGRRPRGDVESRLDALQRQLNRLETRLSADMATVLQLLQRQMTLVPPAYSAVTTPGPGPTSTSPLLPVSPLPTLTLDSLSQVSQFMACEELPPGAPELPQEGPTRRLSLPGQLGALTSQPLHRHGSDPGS
Description: Compounds were tested on voltage-gated ion channels using the medium-throughput electrophysiology IonWorks™ device. […] For carrying out the experiment, a boat in the “Cells” position of the IonWorks™ instrument was loaded with the cell suspension, and a 96-well PBS destination plate was placed in the “Plate 1” position. A 384-well PatchPlate™ was placed in the IonWorks™ plenum and held in position using the plenum clamp. From this point the experiment progress is automated and ultimately reports a non-cumulative concentration-effect curve for test compound.

[6] = Description: Viability of cryopreserved hepatocytes was determined using trypan blue and the cell conc. was adjusted to 10^6 cells per mL with buffer (KHB buffer). 1 μM compound (in Acetonitrile; 0.01% DMSO) was incubated with 500 μL of hepatocyte cells (1 million cells per mL) in a NUNC plate. […] Supernatants were analyzed using LC-MS/MS for substrate depletion.
[7] = tested on: hypoxia induced non-replicating persistent (NRP) Mtb cells; test: Activity against hypoxia induced non-replicating persistent (NRP) Mtb (HBC, Wayne model); type: cell-based, Mycobacterium tuberculosis; conditions: for Mtb H37Rv HBC: Table 5
in vitro [8] = type: in vitro ADME; conditions: plasma
Description: Protein binding is measured using the equilibrium dialysis technique. Compound is added to 10% plasma giving a concentration of 20 μM and dialysed with isotonic buffer for 18 hours at 37° C. The plasma and buffer solutions are analysed using generic LCUVMS and the first apparent binding constant for the compound derived. The binding constant is then used to determine the % free in 100% plasma.

in vivo [9] = conditions: male, Wistar, rat, po, 100 mg/kg
[10] = tested on: A549 human lung carcinoma cells; type: cell-based
Description: The in vitro cytotoxicity of compounds were measured against A549 human lung carcinoma cells as describedin Eakin et. al (2012). Briefly, A549 cells (ATCC) were grown in RPMI medium (GIBCO-BRL) containing 10% heat-inactivated fetal bovine serum (GIBCO-BRL) and 1 mM L-glutamine (GIBCO-BRL) at a density of 1,000 cells/well. After incubation of the cells with compound in a CO2 atmosphere at 37° C. for 72 hours, cell viability was determined following addition of […] of resazurin solution (Sigma), by measuring fluorescence (excitation at 535 nm, emission at 590 nm) using a fluorimeter.

[11] = tested on: Mycobacterium tuberculosis (Mtb) H37Rv ATCC 27294; test: microbe, parasite or virus in culture; type: cell-based; conditions: Mycobacterium tuberculosis
[12] = tested on: CYP1A2, CYP2C9, CYP2C19, CYP2D6, CYP3A4; conditions: human
physchem = type: physicochemical; conditions: 25 °C, pH 7.4, aqueous buffer, thermodynamic from solid
Description: Solubility of the compounds in 0.1M phosphate buffer, pH 7.4 was determined as described, Glyburide was used as QC standard in the assay. Briefly, compounds were diluted in ACN/water (40:60) to desired concentration, samples were dried using Genevac for 4 hrs and subsequently 800 μl of buffer was added. Compound containing plates were stirred for 24 hrs at 25° C. on Eppendorf Thermomix R at 750 rpm. Finally, compound concentration was estimated using UV and MS analysis.

[13] = tested on: panel of human targets and cardiac channels
[14] = tested on: Mycobacterium tuberculosis (Mtb) H37Rv; test: Mtb minimal bactericidal concentration (MBC), plating from MIC plates; type: cell-based
Description: Aliquots from sample wells (MIC and higher) from the MIC plates were diluted 1:10 and plated on 7H10 agar plates. Plates were incubated at 37° C. for 3-4 weeks, CFU was enumerated.

[15] = pH 7.4
Description: Octanol-water partition coefficient (Log D) based on the shake-flask principle has been measured as follows. The aqueous solution used was 10 mM sodium phosphate buffer pH 7.4. 20 μL of 10 mM compound dissolved in DMSO was taken in glass vial plate. DMSO was removed using GeneVac. 435 μL of octanol was added using Tomtec, stirred for 5 min to dissolve. Further mixing was done by inversion for 5 h at 25° C., subsequently centrifuged for 30 min at 3000 RPM. LC/UV/APPI/MS quantitation of both aqueous and octanol layers was carried out. Log D value was determined according to the following equation.

[16] = Table 5, read-out: Mtb H37Rv MIC
[17] = Table 5, read-out: Mtb H37Rv MBC

COc1ncnc(Cn2cc(C(=O)NCC3CC3)c3ncccc32)c1C [Compound 4, N-(cyclopropylmethyl)-1-((6-methoxy-5-methylpyrimidin-4-yl)methyl)-1H-pyrrolo[3,2-b]pyridine-3-carboxamide]
microsomal CLint (in vitro [1]): 180 µL/min/mg | AUC (in vivo [2]): 200 to 700 µM·h | AUC(0-inf) (in vivo [2]; 30 mg/kg): 227 ± 28.9 µM·h | Cmax (in vivo [2]; 30 mg/kg): 17.4 ± 1.76 µM | Tmax (in vivo [2]; 30 mg/kg): 5.67 ± 2.31 h | half-life (in vivo [2]; 30 mg/kg): 3.85 ± 0.54 h | AUC(0-inf) (in vivo [3]): 200 ± 101 µM·h | Cmax (in vivo [3]): 38.9 ± 15.2 µM | Tmax (in vivo [3]): 4.5 ± 2.78 h | half-life (in vivo [3]): 2.23 ± 0.35 h | AUC(0-inf) (in vivo [4]; Wistar, rat, in vivo): 22.9 µM·h | Cmax (in vivo [4]; Wistar, rat, in vivo): 2.35 µM | Tmax (in vivo [4]; Wistar, rat, in vivo): 3 h | half-life (in vivo [4]; Wistar, rat, in vivo): 3.64 h | predicted clearance ([5]; human, rat): 4-18 % of liver blood flow (% LBF) | hERG (hERG): >33 µM | Human CLpred hepatocytes (% LBF) [6]: 4.3 % LBF | Rat CLpred hepatocytes (% LBF) [6]: 13 % LBF

COc1ncnc(Cn2cc(C(=O)NCCF)c3ncc(C)cc32)c1C [Compound 8, N-(2-fluoroethyl)-1-((6-methoxy-5-methylpyrimidin-4-yl)methyl)-6-methyl-1H-pyrrolo[3,2-b]pyridine-3-carboxamide]
microsomal CLint (in vitro [1]): 108 µL/min/mg | Mtb HBC ([7]; hypoxic conditions, Wayne model, Table 4): 100 µM | AUC(0-inf) (in vivo [4]; BALB/c, mouse): 64.2 µM·h | Cmax (in vivo [4]; BALB/c, mouse): 13.4 µM | Tmax (in vivo [4]; BALB/c, mouse): 2 h | half-life (in vivo [4]; BALB/c, mouse): 4.15 h | AUC(0-inf) (in vivo [4]; Wistar, rat, in vivo): 29.3 µM·h | Cmax (in vivo [4]; Wistar, rat, in vivo): 3.69 µM | Tmax (in vivo [4]; Wistar, rat, in vivo): 4.5 h | half-life (in vivo [4]; Wistar, rat, in vivo): 3.58 h | Human CLpred microsomes (% LBF) ([5]; pH 7.4): 10.1 % LBF | fraction unbound at 18 h, 20 μM (in vitro [8]; human): 0.05 to 0.22 | Human PPB (% free) (in vitro [8]): 5 % free | AUC(0-inf) (in vivo [9]): 98.4 ± 31.9 µM·h | Cmax (in vivo [9]): 11.9 ± 3 µM | Tmax (in vivo [9]): 1.5 ± 0.6 h | half-life (in vivo [9]): 7.2 ± 1.3 h | MMIC (A549) ([10]; human, 72 h): >100 µM | MIC ([11]; Table 1, read-out: Mtb MIC): < 0.53 µM | MIC ([11]; Table 4, read-out: Mtb MIC): < 0.39 µM | CYP inhibition [12]: >50 µM | hERG (hERG): >33 µM | solubility (physchem): 4 µM (≈ 1.43 µg/mL) | Secondary pharmacology hits IC50 [13]: No significant hits | in vitro safety profiling [13]: no major safety liabilities | MBC ([14]; Table 4, read-out: Mtb MBC): < 0.39 µM | logD [15]: 2.6 | Human CLpred hepatocytes (% LBF) ([6]; 1 μM): 4.3 % LBF | Rat CLpred hepatocytes (% LBF) ([6]; 1 μM): 14.9 % LBF

COc1ncnc(Cn2cc(C(=O)NCC(F)F)c3ncc(C)cc32)c1C [Compound 30, N-(2,2-difluoroethyl)-1-((6-methoxy-5-methylpyrimidin-4-yl)methyl)-6-methyl-1H-pyrrolo[3,2-b]pyridine-3-carboxamide]
AUC(0-inf) (in vivo [9]): 23.3 ± 11.7 µM·h | Cmax (in vivo [9]): 3.4 ± 2 µM | Tmax (in vivo [9]): 3.3 ± 2.3 h | half-life (in vivo [9]): 3.3 ± 1.1 h | MIC ([11]; Table 1, read-out: Mtb MIC): < 0.391 µM

Cc1ccc(Cn2cc(C(=O)NCCF)c3ncccc32)c(C)c1 [Compound 31, 1-(2,4-dimethylbenzyl)-N-(2-fluoroethyl)-1H-pyrrolo[3,2-b]pyridine-3-carboxamide]
Mtb H37Rv HBC [7]: 12.5 to 25 µM | MMIC (A549) ([10]; human, 72 h): >82 µM | MIC ([11]; Table 1, read-out: Mtb MIC): 1.56 µM (≈ 0.508 µg/mL) | MIC [11, 16]: 1.56 to 3.12 µM (≈ 0.508 to 1.02 µg/mL) | MBC [14, 17]: 3.12 to 6.25 µM (≈ 1.02 to 2.03 µg/mL)

COc1cccc(F)c1Cn1cc(C(=O)NCC2CC2)c2ncccc21 [Compound 32, N-(cyclopropylmethyl)-1-(2-fluoro-6-methoxybenzyl)-1H-pyrrolo[3,2-b]pyridine-3-carboxamide]
Mtb H37Rv HBC [7]: >200 µM | MMIC (A549) ([10]; Table 5): >100 µM | MIC ([11]; Table 1, read-out: Mtb MIC): 1.56 µM (≈ 0.551 µg/mL) | MIC [11, 16]: 1.56 to 3.12 µM (≈ 0.551 to 1.1 µg/mL) | MBC [14, 17]: 1.56 to 6.25 µM (≈ 0.551 to 2.21 µg/mL)

Cc1cnc2c(C(=O)NCCO)cn(Cc3ncnc(N(C)C)c3C)c2c1 [Compound 34, 1-((6-(dimethylamino)-5-methylpyrimidin-4-yl)methyl)-N-(2-hydroxyethyl)-6-methyl-1H-pyrrolo[3,2-b]pyridine-3-carboxamide]
AUC(0-inf) (in vivo [9]): 166 ± 43.9 µM·h | Cmax (in vivo [9]): 31.5 ± 3 µM | Tmax (in vivo [9]): 2 h | half-life (in vivo [9]): 4.6 h | MIC ([11]; Table 1, read-out: Mtb MIC): < 0.39 µM

Cc1cnc2c(C(=O)NCCF)cn(Cc3ncc(C)nc3C)c2c1 [Compound 45, 1-((3,5-dimethylpyrazin-2-yl)methyl)-N-(2-fluoroethyl)-6-methyl-1H-pyrrolo[3,2-b]pyridine-3-carboxamide]
MIC ([11]; Table 1, read-out: Mtb MIC): < 0.39 µM

Cc1cnc2c(C(=O)NCC(F)F)cn(Cc3ncc(C)nc3C)c2c1 [Compound 46, N-(2,2-difluoroethyl)-1-((3,5-dimethylpyrazin-2-yl)methyl)-6-methyl-1H-pyrrolo[3,2-b]pyridine-3-carboxamide]
MIC ([11]; Table 1, read-out: Mtb MIC): < 0.39 µM

NNC(=O)c1ccncc1 [Isoniazid]
reduction in the bacterial CFU of NRP Mtb [7]: no reduction
